Laboratory results from paper PMC3013619 (Cell host & microbe, 2009).

target: T1, TgAPT (apicoplast phosphate translocator), TgAPT-N (Toxoplasma gondii, UniProt A7U554); experiment: […]-Pi uptake into proteoliposomes, competitive inhibition; type: biochemical; settings: competitive with Pi; apparent; pH 7.6; reconstituted solubilized yeast membranes
T1 sequence (A7U554 1-352): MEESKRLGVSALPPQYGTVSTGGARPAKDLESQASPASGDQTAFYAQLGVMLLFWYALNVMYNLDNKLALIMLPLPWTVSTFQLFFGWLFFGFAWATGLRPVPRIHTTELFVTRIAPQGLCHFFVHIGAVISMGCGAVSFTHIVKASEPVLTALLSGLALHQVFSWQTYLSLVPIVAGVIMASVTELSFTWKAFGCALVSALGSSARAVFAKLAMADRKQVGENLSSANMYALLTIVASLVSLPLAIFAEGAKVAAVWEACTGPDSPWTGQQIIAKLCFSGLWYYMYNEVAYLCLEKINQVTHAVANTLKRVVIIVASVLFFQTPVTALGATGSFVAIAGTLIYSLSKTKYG

| Molecule | Kinetic constant ^d / TgAPT |
| --- | --- |
| O=C(O)[C@H](O)COP(=O)(O)O [3-PGA] | 1.33 ± 0.49 mM |
| C=C(OP(=O)(O)O)C(=O)O [PEP] | 1.65 ± 0.52 mM |
| triose phosphate | 1.63 ± 0.26 mM |
